Assay results from patent US20050208496A1, “Methods of testing for bronchial asthma or chronic obstructive pulmonary disease” (Genox Research, Inc., priority 2002, published 2005).
Where two headings read alike, the source gives them in different places.

Test system: respiratory epithelial cells

Substance: IL-13: human IL-13 (Peprotech, Inc.) added to the medium at 50 ng/mL to stimulate respiratory epithelial cells
- PR01489 57777_at expression change (lot 1 Day 3 AI): −2.1
- PSCA (63958_at) expression change (lot 1 Day 3 AI): −9.8
- RAC2 32737_at expression change (lot 1 Day 3 AI): −4.3
- RGC32 (57044_s_at) expression change (lot 1 Day 3 AI): −2.7
- SCYB14 (65823_at) expression change (lot 1 Day 3 AI): −4.1
- SEMA4B (46709_at) expression change (lot 1 Day 3 AI): −2.8
- SERPINA3 (75248_at) expression change (lot 1 Day 3 AI): −4.8
- SLC34A2 (48048_at) expression change (lot 1 Day 3 AI): −2.8
- STEAP 40297_at expression change (lot 1 Day 3 AI): −2.2
- TCF8 33439_at expression change (lot 1 Day 3 AI): −2.5
- TGFBI (68339_at) expression change (lot 1 Day 3 AI): −2.9
- TNRC3 41246_at expression change (lot 1 Day 3 AI): −2.9
- TPM1 36790_at expression change (lot 1 Day 3 AI): −2.9
- TPM1 36791_g_at expression change (lot 1 Day 3 AI): −2.5
- TPM1 36792_at expression change (lot 1 Day 3 AI): −2.6
- UGB 39220_at expression change (lot 1 Day 3 AI): −6
- VIM 34091_s_at expression change (lot 1 Day 3 AI): −3.4
- W72331 49486 at expression change (lot 1 Day 3 AI): −8
- AA045020 (44676_at) expression change (lot 1 Day 3 IMM): −3.4
- AA059445 46293_at expression change (lot 1 Day 3 IMM): −3.9
- AA059458 (65626_at) expression change (lot 1 Day 3 IMM): −4.5
- AA456099 (59567_at) expression change (lot 1 Day 3 IMM): −2
- AI050855 (64285_at) expression change (lot 1 Day 3 IMM): −2.6
- AI468340 (72604_at) expression change (lot 1 Day 3 IMM): −2.2
- AI984780 (52384_s_at) expression change (lot 1 Day 3 IMM): −2.8
- AQP5 32909_at expression change (lot 1 Day 3 IMM): −3.1
- AW025596 52637_g_at expression change (lot 1 Day 3 IMM): −3.1
- COL12A1 (44730_at) expression change (lot 1 Day 3 IMM): −2.9
- DSC3a, b 47119_at expression change (lot 1 Day 3 IMM): −2.6
- HIN-1 (46200_at) expression change (lot 1 Day 3 IMM): −3.1
- IVL 36355_at expression change (lot 1 Day 3 IMM): −8.4
- KIAA1376 (62972_at) expression change (lot 1 Day 3 IMM): −2.5
- KLF7 34216_at expression change (lot 1 Day 3 IMM): −3.3
- KRT6B (62998_at) expression change (lot 1 Day 3 IMM): −3.5
- LCE 45605_at expression change (lot 1 Day 3 IMM): −2.1
- LOC51297 (49616_at) expression change (lot 1 Day 3 IMM): −4
- LOC51297 (55440_at) expression change (lot 1 Day 3 IMM): −10.5
- LOC51297 (55442_g_at) expression change (lot 1 Day 3 IMM): −4.9
- LOC55893 (64071_at) expression change (lot 1 Day 3 IMM): −2
- LOC129642 (42065_at) expression change (lot 1 Day 3 IMM): −2
- MGC12536 46924_at expression change (lot 1 Day 3 IMM): −2.1
- MGC14128 (51669_r_at) expression change (lot 1 Day 3 IMM): −2.2
- MGC14597 (46030_at) expression change (lot 1 Day 3 IMM): −3.1
- MGC16207 (65876_at) expression change (lot 1 Day 3 IMM): −4.5
- N71183 52473_at expression change (lot 1 Day 3 IMM): −2.4
- PR01489 57777_at expression change (lot 1 Day 3 IMM): −3.4
- RAC2 32737_at expression change (lot 1 Day 3 IMM): −3.5
- SLC11A3 (45826_at) expression change (lot 1 Day 3 IMM): −2.3
- STEAP 40297_at expression change (lot 1 Day 3 IMM): −2.3
- TCF8 33439_at expression change (lot 1 Day 3 IMM): −2.7
- TPM1 36791_g_at expression change (lot 1 Day 3 IMM): −2.2
- UCP2 37591_at expression change (lot 1 Day 3 IMM): −2.3
- UGB 39220_at expression change (lot 1 Day 3 IMM): −4
- VIM 34091_s_at expression change (lot 1 Day 3 IMM): −3.2
- W72331 49486 at expression change (lot 1 Day 3 IMM): −3.2
- AA045020 (44676_at) expression change (lot 2, Day 3, AI): −5.7
- AA059445 46293_at expression change (lot 2, Day 3, AI): −4.5
- AA059458 (65626_at) expression change (lot 2, Day 3, AI): −5.8
- AA079839 (69289_at) expression change (lot 2, Day 3, AI): −2
- AA160156 (47578_at) expression change (lot 2, Day 3, AI): −2.3
- AA369887 (87539_i_at) expression change (lot 2, Day 3, AI): −3.4
- AA456099 (59567_at) expression change (lot 2, Day 3, AI): −2.1
- AA772055 46104_at expression change (lot 2, Day 3, AI): −2.7
- AA779895 59136_at expression change (lot 2, Day 3, AI): −3.2
- AF052107 38262_at expression change (lot 2, Day 3, AI): −3.8
- AI050855 (64285_at) expression change (lot 2, Day 3, AI): −2.9
- AI264299 (84903_f_at) expression change (lot 2, Day 3, AI): −10.4
- AI432375 (49819_at) expression change (lot 2, Day 3, AI): −2.6
- AI468340 (72604_at) expression change (lot 2, Day 3, AI): −2.4
- AI669212 55436_at expression change (lot 2, Day 3, AI): −3.7
- AI740855 (83076_at) expression change (lot 2, Day 3, AI): −2.7
- AI760772 (58528_s_at) expression change (lot 2, Day 3, AI): −2
- AI770116 (70124_at) expression change (lot 2, Day 3, AI): −2.6
- AI798733 (64163_at) expression change (lot 2, Day 3, AI): −2.3
- AI829641 (84270_at) expression change (lot 2, Day 3, AI): −24.1
- AI917602 (49985_at) expression change (lot 2, Day 3, AI): −2.4
- AI948584 48086_at expression change (lot 2, Day 3, AI): −15.6
- AI984780 (52384_s_at) expression change (lot 2, Day 3, AI): −5.3
- AQP5 32909_at expression change (lot 2, Day 3, AI): −5.1
- AW022213 (79520_at) expression change (lot 2, Day 3, AI): −2.9
- AW025596 52634_at expression change (lot 2, Day 3, AI): −2
- AW025596 52637_g_at expression change (lot 2, Day 3, AI): −7.5
- B4GALT5 56373_at expression change (lot 2, Day 3, AI): −2.2
- BARX2 35425_at expression change (lot 2, Day 3, AI): −2.5
- BPGM (51261_at) expression change (lot 2, Day 3, AI): −2.5
- CBLB 514_at expression change (lot 2, Day 3, AI): −4.6
- CRABP-II 1057_at expression change (lot 2, Day 3, AI): −4.7
- CRABP-II 41783_at expression change (lot 2, Day 3, AI): −5.4
- DHCR24 (74557_s_at) expression change (lot 2, Day 3, AI): −2.1
- DKFZp434K1210 44682_at expression change (lot 2, Day 3, AI): −2.9
- DREV1 (63813_at) expression change (lot 2, Day 3, AI): −2.1
- DSC3a, b 47119_at expression change (lot 2, Day 3, AI): −2.2
- EIF4EBP1 (54152_at) expression change (lot 2, Day 3, AI): −2.3
- FLJ10298 (62490_f_at) expression change (lot 2, Day 3, AI): −3.4
- FLJ10718 52072_at expression change (lot 2, Day 3, AI): −5.5
- FLJ12541 43546_at expression change (lot 2, Day 3, AI): −3.8
- FLJ20048 (49196_at) expression change (lot 2, Day 3, AI): −2.3
- FLJ20373 54030_at expression change (lot 2, Day 3, AI): −2.4
- FLJ23516 47534_at expression change (lot 2, Day 3, AI): −2.6
- GJA1 32531_at expression change (lot 2, Day 3, AI): −6.8
- GSTA3 58023 at expression change (lot 2, Day 3, AI): −5.3
- HEY1 44783_s_at expression change (lot 2, Day 3, AI): −5.4
- HIN-1 (46200_at) expression change (lot 2, Day 3, AI): −28
- HSPC195 44705_at expression change (lot 2, Day 3, AI): −2
- ID1 36619_r_at expression change (lot 2, Day 3, AI): −2.3
- IVL 36355_at expression change (lot 2, Day 3, AI): −3.6
- K1IAA1102 (64345_s_at) expression change (lot 2, Day 3, AI): −3.2
